Values after ≈ are worked out from the molar mass of the structure shown.
Assays:
Human alphaherpesvirus 1 [1] = assay: Tested for antiviral activity against HSV-1 (TK-KOS); format: functional, organism-based
Cytomegalovirus [2] = assay: Effective concentration required against HCMV AD169 for antiviral activity; format: functional, organism-based, Human betaherpesvirus 5
Human alphaherpesvirus 1 [3] = assay: Tested for antiviral activity against HSV-1 (KOS); format: functional, organism-based
Cytomegalovirus [4] = assay: Tested for antiviral activity against HCMV (AD169); format: functional, organism-based, Human betaherpesvirus 5
Human alphaherpesvirus 2 = assay: Tested for antiviral activity against HSV-2 (G); format: functional, organism-based
Hepatitis B virus = assay: Tested for antiviral activity against HBV (Hep AD79); format: functional, organism-based
Human alphaherpesvirus 3 [5] = assay: Tested for antiviral activity against VZV (YS); format: functional, organism-based
Human alphaherpesvirus 3 [6] = assay: Tested for antiviral activity against VZV ([…]); format: functional, organism-based
Cytomegalovirus [7] = assay: Effective concentration required against HCMV strain for antiviral activity; format: functional, organism-based; details: Human betaherpesvirus 5
[8] = Human alphaherpesvirus 1, read-out: IC50
[9] = Human alphaherpesvirus 2, read-out: IC50
[10] = Hepatitis B virus, read-out: IC50
[11] = Human betaherpesvirus 5, read-out: EC50

SMILES | IC50 (Human alphaherpesvirus 1 [1]) | EC50 (Cytomegalovirus [2]) | IC50 (Human alphaherpesvirus 1 [3]) | IC50 (Cytomegalovirus [4]) | IC50 (Human alphaherpesvirus 2) | IC50 (Hepatitis B virus) | IC50 (Human alphaherpesvirus 3 [5]) | IC50 (Human alphaherpesvirus 3 [6]) | IC50 (Human alphaherpesvirus 1 [3]; [8]) | IC50 (Human alphaherpesvirus 2; [9]) | IC50 (Hepatitis B virus; [10]) | IC50 (Human alphaherpesvirus 1 [1]; [8]) | EC50 (Cytomegalovirus [7]) | EC50 (Cytomegalovirus [2]; [11]) | IC50 (Cytomegalovirus [4]; Human betaherpesvirus 5, read-out: IC50)
Nc1nc(O)c2ncn(C3C=CC(CO)C(O)C3)c2n1 (stereo in doubt; form 1) | 0.38 µg/mL (≈ 1.37 µM) | 0.47 µg/mL (≈ 1.7 µM) | 0.002 µg/mL (≈ 0.00721 µM) | 0.6 µg/mL (≈ 2.16 µM) | 0.05 µg/mL (≈ 0.18 µM) | 3 µg/mL (≈ 10.8 µM) | 0.49 µg/mL (≈ 1.77 µM) | 2.1 µg/mL (≈ 7.57 µM) |  |  |  |  |  |  | 
Nc1nc(O)c2ncn(C3C=CC(CO)C(O)C3)c2n1 (stereo in doubt; form 2) | 1.28 µg/mL (≈ 4.62 µM) | 1.05 µg/mL (≈ 3.79 µM) |  | 1.5 µg/mL (≈ 5.41 µM) |  |  | 1.2 µg/mL (≈ 4.33 µM) | 5.8 µg/mL (≈ 20.9 µM) | 0.003 µg/mL (≈ 0.0108 µM) | 0.07 µg/mL (≈ 0.252 µM) | 3 µg/mL (≈ 10.8 µM) |  |  |  | 
Nc1nc2c(ncn2COCCO)c(=O)[nH]1 [ACYCLOVIR] |  |  |  |  |  |  |  |  | 0.01 µg/mL (≈ 0.0444 µM) | 0.02 µg/mL (≈ 0.0888 µM) | > 50 µg/mL | 9.6 µg/mL (≈ 42.6 µM) | 16 µg/mL (≈ 71 µM) | 16 µg/mL (≈ 71 µM) | 
Nc1nc2c(ncn2COC(CO)CO)c(=O)[nH]1 [GANCICLOVIR] |  |  |  |  |  |  |  |  | 0.001 µg/mL (≈ 0.00392 µM) | 0.002 µg/mL (≈ 0.00784 µM) | 45 µg/mL (≈ 176 µM) | 0.48 µg/mL (≈ 1.88 µM) |  | 0.77 µg/mL (≈ 3.02 µM) | 0.6 µg/mL (≈ 2.35 µM)
